Results on 18 compounds are retold here after patent US8853418B2, “Cyclopentylpyrazoles as N-type calcium channel blockers” (Janssen Pharmaceutica NV, priority 2012, dated 2014).

Read-outs that look alike come from different tables or passages of the source.

Experiment [1] concerns the target N-type calcium channel (α1B (Cav2.2), β3 and α2δ subunits) (Homo sapiens, UniProt Q00975). Put plainly: Functional Assay: Antagonism of N-Type Calcium Channel (FDSS calcium mobilization, KCl depolarization). The settings on record: for IC50: HEK cell line, 50 mM KCl depolarization, six-point concentration-response, read-out: FDSS IC50. The experiment is classed as cell-based. The essentials: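 HEK cells stably co-expressing α1B (Cav2.2), β3 and α2δ were loaded with calcium dye, then given compound with fluorescence recorded for 5 min before 50 mM KCl depolarisation and 3 min more reading. IC50 came from six-point curves of maximal fluorescence, normalised to KCl maximum and buffer minimum.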

Experiment [2] has as its target N-type calcium channel (Homo sapiens, UniProt Q00975). Put plainly: Automated Electrophysiology Assay (QPatch-HT whole-cell patch clamp; low- and high-frequency stimulation). The experiment is classed as cell-based.
Where [3] appears, read: high-frequency stimulation (15th pulse), read-out: QPatch at High Frequency % Inhibition.
Setting [4] is: low frequency, read-out: QPatch at Low Frequency % Inhibition.

N-type calcium channel, sequence (Q00975 whole entry): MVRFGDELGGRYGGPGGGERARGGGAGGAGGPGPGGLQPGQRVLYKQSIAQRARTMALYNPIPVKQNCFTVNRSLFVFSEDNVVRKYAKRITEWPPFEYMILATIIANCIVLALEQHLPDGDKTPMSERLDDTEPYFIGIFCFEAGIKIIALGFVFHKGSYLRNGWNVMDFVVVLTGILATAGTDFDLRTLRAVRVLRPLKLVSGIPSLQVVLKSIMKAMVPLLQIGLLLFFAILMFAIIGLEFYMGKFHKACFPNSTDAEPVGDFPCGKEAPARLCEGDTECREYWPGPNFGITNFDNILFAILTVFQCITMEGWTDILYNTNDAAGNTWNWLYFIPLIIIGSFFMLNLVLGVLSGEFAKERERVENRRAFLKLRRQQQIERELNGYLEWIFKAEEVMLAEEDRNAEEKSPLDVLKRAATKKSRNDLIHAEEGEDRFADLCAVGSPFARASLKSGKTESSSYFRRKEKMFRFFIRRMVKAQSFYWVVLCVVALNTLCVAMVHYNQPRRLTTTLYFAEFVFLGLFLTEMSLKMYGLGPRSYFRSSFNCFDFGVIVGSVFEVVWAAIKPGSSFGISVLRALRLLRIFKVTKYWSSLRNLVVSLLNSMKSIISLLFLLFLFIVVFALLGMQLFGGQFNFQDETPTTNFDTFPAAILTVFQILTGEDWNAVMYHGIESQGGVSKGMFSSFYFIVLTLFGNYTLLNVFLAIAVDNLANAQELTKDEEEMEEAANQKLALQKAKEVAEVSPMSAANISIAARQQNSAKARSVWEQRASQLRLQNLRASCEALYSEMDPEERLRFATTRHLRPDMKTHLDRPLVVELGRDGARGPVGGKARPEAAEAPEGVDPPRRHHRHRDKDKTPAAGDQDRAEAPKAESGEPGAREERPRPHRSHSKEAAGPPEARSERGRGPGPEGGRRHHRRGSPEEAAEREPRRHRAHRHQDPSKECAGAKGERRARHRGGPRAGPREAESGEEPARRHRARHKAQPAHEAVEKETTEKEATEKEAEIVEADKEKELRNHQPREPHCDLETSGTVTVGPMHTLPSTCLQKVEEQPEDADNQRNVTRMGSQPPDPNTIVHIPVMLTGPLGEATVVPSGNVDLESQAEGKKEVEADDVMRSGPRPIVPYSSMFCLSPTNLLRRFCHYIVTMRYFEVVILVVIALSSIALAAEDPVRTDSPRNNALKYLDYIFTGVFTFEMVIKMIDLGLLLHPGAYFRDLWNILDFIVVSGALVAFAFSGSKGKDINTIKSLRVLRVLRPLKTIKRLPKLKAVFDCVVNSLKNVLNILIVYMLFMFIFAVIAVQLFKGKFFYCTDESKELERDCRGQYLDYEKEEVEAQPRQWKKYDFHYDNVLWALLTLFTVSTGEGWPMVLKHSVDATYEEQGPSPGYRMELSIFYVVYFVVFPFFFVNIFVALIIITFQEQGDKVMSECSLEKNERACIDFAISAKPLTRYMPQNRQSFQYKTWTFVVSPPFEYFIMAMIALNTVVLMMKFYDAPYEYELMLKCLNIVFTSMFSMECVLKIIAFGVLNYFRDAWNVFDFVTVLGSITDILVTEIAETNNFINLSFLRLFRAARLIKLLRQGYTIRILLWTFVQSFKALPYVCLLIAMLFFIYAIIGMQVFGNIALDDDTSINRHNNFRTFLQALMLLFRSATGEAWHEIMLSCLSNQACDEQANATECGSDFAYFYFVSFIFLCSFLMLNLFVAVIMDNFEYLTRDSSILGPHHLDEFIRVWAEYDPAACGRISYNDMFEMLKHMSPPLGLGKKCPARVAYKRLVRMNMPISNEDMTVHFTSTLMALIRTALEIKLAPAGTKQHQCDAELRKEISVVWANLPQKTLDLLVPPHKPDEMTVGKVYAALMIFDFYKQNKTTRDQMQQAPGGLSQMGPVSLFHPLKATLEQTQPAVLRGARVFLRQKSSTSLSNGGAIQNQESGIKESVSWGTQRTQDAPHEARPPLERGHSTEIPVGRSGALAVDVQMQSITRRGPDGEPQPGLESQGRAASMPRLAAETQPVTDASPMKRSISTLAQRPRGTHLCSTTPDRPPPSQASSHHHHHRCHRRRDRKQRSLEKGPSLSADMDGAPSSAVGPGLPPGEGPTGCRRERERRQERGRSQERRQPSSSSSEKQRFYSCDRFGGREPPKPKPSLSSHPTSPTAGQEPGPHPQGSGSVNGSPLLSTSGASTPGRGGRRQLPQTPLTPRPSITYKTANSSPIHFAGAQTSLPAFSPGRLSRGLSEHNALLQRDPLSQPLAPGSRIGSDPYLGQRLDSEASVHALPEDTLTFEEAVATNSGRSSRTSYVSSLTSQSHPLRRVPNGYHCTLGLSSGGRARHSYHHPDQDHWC
N-type calcium channel, sequence (P54284 whole entry partner): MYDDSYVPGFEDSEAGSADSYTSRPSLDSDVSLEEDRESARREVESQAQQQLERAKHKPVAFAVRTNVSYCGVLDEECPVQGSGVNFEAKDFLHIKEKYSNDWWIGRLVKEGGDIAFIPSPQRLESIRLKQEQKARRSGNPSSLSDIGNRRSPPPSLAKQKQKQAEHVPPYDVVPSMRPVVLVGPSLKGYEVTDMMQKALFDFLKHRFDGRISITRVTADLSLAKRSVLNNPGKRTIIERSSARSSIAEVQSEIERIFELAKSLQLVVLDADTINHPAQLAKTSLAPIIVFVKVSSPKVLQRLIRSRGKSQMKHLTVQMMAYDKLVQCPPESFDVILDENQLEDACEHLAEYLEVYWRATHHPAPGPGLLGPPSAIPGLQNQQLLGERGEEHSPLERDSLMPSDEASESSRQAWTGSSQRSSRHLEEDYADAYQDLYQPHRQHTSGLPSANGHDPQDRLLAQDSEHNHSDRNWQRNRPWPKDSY
N-type calcium channel, sequence (P54289 25-946 partner limits assumed): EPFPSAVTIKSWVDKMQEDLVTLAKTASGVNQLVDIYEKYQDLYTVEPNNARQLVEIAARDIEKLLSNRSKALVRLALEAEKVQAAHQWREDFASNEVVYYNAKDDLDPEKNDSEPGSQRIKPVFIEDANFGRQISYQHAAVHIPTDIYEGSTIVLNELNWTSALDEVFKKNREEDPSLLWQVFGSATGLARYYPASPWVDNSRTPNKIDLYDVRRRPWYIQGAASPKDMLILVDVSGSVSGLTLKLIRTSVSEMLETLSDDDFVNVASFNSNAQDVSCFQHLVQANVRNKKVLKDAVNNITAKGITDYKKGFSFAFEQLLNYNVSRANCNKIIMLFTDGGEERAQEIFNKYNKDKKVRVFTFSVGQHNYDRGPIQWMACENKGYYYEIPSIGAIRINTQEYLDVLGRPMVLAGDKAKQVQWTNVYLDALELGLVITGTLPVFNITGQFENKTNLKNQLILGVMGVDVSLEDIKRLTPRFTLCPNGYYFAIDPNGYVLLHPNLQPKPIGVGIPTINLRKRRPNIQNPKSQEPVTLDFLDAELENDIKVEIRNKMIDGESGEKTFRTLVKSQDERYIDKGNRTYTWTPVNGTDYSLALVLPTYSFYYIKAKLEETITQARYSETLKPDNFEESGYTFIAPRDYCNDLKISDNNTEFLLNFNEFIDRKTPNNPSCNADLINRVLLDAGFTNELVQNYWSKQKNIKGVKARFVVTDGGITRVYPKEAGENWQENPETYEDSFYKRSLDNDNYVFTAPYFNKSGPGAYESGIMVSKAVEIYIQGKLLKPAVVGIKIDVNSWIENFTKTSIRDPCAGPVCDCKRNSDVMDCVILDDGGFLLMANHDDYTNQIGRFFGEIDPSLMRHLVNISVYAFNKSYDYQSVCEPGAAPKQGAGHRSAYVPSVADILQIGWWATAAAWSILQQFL
N-type calcium channel, sequence (P54289 947-1103 partner limits assumed): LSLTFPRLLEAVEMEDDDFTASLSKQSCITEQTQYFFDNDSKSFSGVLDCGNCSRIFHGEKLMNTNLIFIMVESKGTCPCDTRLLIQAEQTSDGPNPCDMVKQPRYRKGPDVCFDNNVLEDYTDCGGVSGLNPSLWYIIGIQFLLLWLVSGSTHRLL
N-type calcium channel (α1B (Cav2.2), β3 and α2δ subunits), sequence (Q00975 whole entry): as the sequence (Q00975 whole entry) above
N-type calcium channel (α1B (Cav2.2), β3 and α2δ subunits), sequence (P54284 whole entry partner): as the sequence (P54284 whole entry partner) above
N-type calcium channel (α1B (Cav2.2), β3 and α2δ subunits), sequence (P54289 25-946 partner limits assumed): as the sequence (P54289 25-946 partner limits assumed) above
N-type calcium channel (α1B (Cav2.2), β3 and α2δ subunits), sequence (P54289 947-1103 partner limits assumed): as the sequence (P54289 947-1103 partner limits assumed) above

On to `COc1ccccc1-n1nc2c(c1-c1ccc(Cl)cc1)CC(CCNC(=O)OC(C)(C)C)C2` (stereo not drawn) [Compound 13, tert-butyl{2-[3-(4-chlorophenyl)-2-(2-methoxyphenyl)-2,4,5,6-tetrahydrocyclopenta[c]pyrazol-5-yl]ethyl}carbamate], for which the IC50 in experiment [1] is 38 nM. Moreover, the inhibition at 1 µM in experiment [2] (setting [3]) was 67%; in experiment [2] (setting [4]), 42%.

`CCc1ccccc1-n1nc2c(c1-c1ccc(Cl)cc1)CC(CNC(=O)OC(C)(C)C)C2` (stereo not drawn) [Compound 16, tert-butyl{[3-(4-chlorophenyl)-2-(2-ethylphenyl)-2,4,5,6-tetrahydrocyclopenta[c]pyrazol-5-yl]methyl}carbamate]: the IC50 in experiment [1] is 130 nM. Besides, the inhibition at 1 µM came to 43% in experiment [2] (setting [3]) and 19% in experiment [2] (setting [4]).

Consider `O=C1Cc2nn(-c3ccccc3OC(F)(F)F)c(-c3ccc(Cl)cc3)c2C1` [Compound 27, 3-(4-chlorophenyl)-2-[2-(trifluoromethoxy)phenyl]-2,6-dihydrocyclopenta[c]pyrazol-5(4H)-one], for which the IC50 in experiment [1] turned out to be 11 nM. The inhibition at 0.1 µM in experiment [2] (setting [3]) was -14%; in experiment [2] (setting [4]) it was -16%.

As for `COc1ccccc1-n1nc2c(c1-c1ccc(Cl)cc1)CC(OC(=O)N(C)C)C2` (stereo not drawn) [Compound 28, 3-(4-chlorophenyl)-2-(2-methoxyphenyl)-2,4,5,6-tetrahydrocyclopenta[c]pyrazol-5-yl dimethylcarbamate], the IC50 in experiment [1] is 15 nM. The inhibition at 0.1 µM in experiment [2] (setting [3]) is 45%; in experiment [2] (setting [4]), 25%.

Regarding `COc1ccccc1-n1nc2c(c1-c1ccc(Cl)cc1)CC(OC(=O)N1CCOCC1)C2` (stereo not drawn) [Compound 29, 3-(4-chlorophenyl)-2-(2-methoxyphenyl)-2,4,5,6-tetrahydrocyclopenta[c]pyrazol-5-yl morpholine-4-carboxylate], the IC50 in experiment [1] came to 43 nM. Also, the inhibition at 0.1 µM is 21% in experiment [2] (setting [3]) and -8% in experiment [2] (setting [4]).

Consider `CCOc1ccccc1-n1nc2c(c1-c1ccc(Cl)cc1)CC(OC(=O)N(C)C)C2` (stereo not drawn) [Compound 30, 3-(4-chlorophenyl)-2-(2-ethoxyphenyl)-2,4,5,6-tetrahydrocyclopenta[c]pyrazol-5-yl dimethylcarbamate], for which the IC50 in experiment [1] was found to be 28 nM. The inhibition at 0.1 µM in experiment [2] (setting [3]) is 25%; in experiment [2] (setting [4]) it was 9%.

In the case of `CCOc1ccccc1-n1nc2c(c1-c1ccc(Cl)cc1)CC(OC(=O)N1CCOCC1)C2` (stereo not drawn) [Compound 31, 3-(4-chlorophenyl)-2-(2-ethoxyphenyl)-2,4,5,6-tetrahydrocyclopenta[c]pyrazol-5-yl morpholine-4-carboxylate], the IC50 in experiment [1] was 18 nM. Moreover, the inhibition at 0.1 µM stood at 22% in experiment [2] (setting [3]) and 14% in experiment [2] (setting [4]).

`COc1ccccc1-n1nc2c(c1-c1ccc(Cl)cc1)CC(NS(C)(=O)=O)C2` (stereo not drawn) [Compound 32, N-[3-(4-chlorophenyl)-2-(2-methoxyphenyl)-2,4,5,6-tetrahydrocyclopenta[c]pyrazol-5-yl]methanesulfonamide]: the IC50 in experiment [1] was 26 nM. Moreover, the inhibition at 0.1 µM in experiment [2] (setting [3]) worked out at 20%; in experiment [2] (setting [4]), 18%.

In the case of `COc1ccccc1-n1nc2c(c1-c1ccc(Cl)cc1)CC(NS(=O)(=O)C(C)C)C2` (stereo not drawn) [Compound 33, N-[3-(4-chlorophenyl)-2-(2-methoxyphenyl)-2,4,5,6-tetrahydrocyclopenta[c]pyrazol-5-yl]propane-2-sulfonamide], the IC50 in experiment [1] is 18 nM. The inhibition at 0.1 µM in experiment [2] (setting [3]) is 42%; in experiment [2] (setting [4]) it was 35%.

Consider `COc1ccccc1-n1nc2c(c1-c1ccc(Cl)cc1)CC(NS(=O)(=O)N(C)C)C2` (stereo not drawn) [Compound 34, N′-[3-(4-chlorophenyl)-2-(2-methoxyphenyl)-2,4,5,6-tetrahydrocyclopenta[c]pyrazol-5-yl]-N,N-dimethylsulfamide], for which the IC50 in experiment [1] worked out at 14 nM. Also, the inhibition at 0.1 µM in experiment [2] (setting [3]) was determined as 37%; in experiment [2] (setting [4]), 34%.

Regarding `CCOc1ccccc1-n1nc2c(c1-c1ccc(Cl)cc1)CC(=O)C2` [Compound 36, 3-(4-chlorophenyl)-2-(2-ethoxyphenyl)-2,6-dihydrocyclopenta[c]pyrazol-5(4H)-one], the IC50 in experiment [1] came to 29 nM. For the same compound, the inhibition at 0.1 µM turned out to be 26% in experiment [2] (setting [3]) and 18% in experiment [2] (setting [4]).

As to `COc1ccccc1-n1nc2c(c1-c1ccc(Cl)cc1)CC(N(C)S(C)(=O)=O)C2` (stereo not drawn) [Compound 37, N-[3-(4-chlorophenyl)-2-(2-methoxyphenyl)-2,4,5,6-tetrahydrocyclopenta[c]pyrazol-5-yl]-N-methylmethanesulfonamide], the IC50 in experiment [1] is 6.4 nM. The inhibition at 0.1 µM in experiment [2] (setting [3]) was 46%; in experiment [2] (setting [4]), 44%.

Turning to `CCOc1ccccc1-n1nc2c(c1-c1ccc(Cl)cc1)CC(N1C(=O)CCC1=O)C2` (stereo not drawn) [Compound 38, 1-[3-(4-chlorophenyl)-2-(2-ethoxyphenyl)-2,4,5,6-tetrahydrocyclopenta[c]pyrazol-5-yl]pyrrolidine-2,5-dione], in experiment [1], the IC50 came out at 7.5 nM. The inhibition at 0.1 µM in experiment [2] (setting [3]) was found to be 53%; in experiment [2] (setting [4]) it was 47%.

As for `CCOc1ccccc1-n1nc2c(c1-c1ccc(Cl)cc1)CC(n1ccnc1)C2` (stereo not drawn) [Compound 39, 3-(4-chlorophenyl)-2-(2-ethoxyphenyl)-5-(1H-imidazol-1-yl)-2,4,5,6-tetrahydrocyclopenta[c]pyrazole], in experiment [1], the inhibition at 0.33 µM turned out to be 81% and the IC50 stood at 38 nM. In addition, in experiment [2] (setting [3]), the inhibition at 0.1 µM came to 29%, the inhibition at 0.25 µM was 47% and the inhibition at 1 µM was found to be 72%. In experiment [2] (setting [4]), the inhibition at 0.1 µM is 13%, the inhibition at 0.25 µM was 34% and the inhibition at 1 µM amounted to 51%.

In the case of `CCOc1ccccc1-n1nc2c(c1-c1ccc(Cl)cc1)CC(n1cc([Si](C)(C)C)nn1)C2` (stereo not drawn) [Compound 41, 3-(4-chlorophenyl)-2-(2-ethoxyphenyl)-5-[4-(trimethylsilyl)-1H-1,2,3-triazol-1-yl]-2,4,5,6-tetrahydrocyclopenta[c]pyrazole], in experiment [1], the inhibition at 0.33 µM was 92% and the IC50 is 24 nM. In addition, in experiment [2] (setting [3]), the inhibition at 0.1 µM was determined as 60%. Besides, the inhibition at 0.1 µM in experiment [2] (setting [4]) was found to be 58%.

As to `CCOc1ccccc1-n1nc2c(c1-c1ccc(Cl)cc1)CC(n1ccnn1)C2` (stereo not drawn) [Compound 42, 3-(4-chlorophenyl)-2-(2-ethoxyphenyl)-5-(1H-1,2,3-triazol-1-yl)-2,4,5,6-tetrahydrocyclopenta[c]pyrazole], in experiment [1], the inhibition at 0.33 µM was 91% and the IC50 was found to be 19 nM. In addition, the inhibition at 1 µM in experiment [2] (setting [3]) stood at 87%. The inhibition at 1 µM in experiment [2] (setting [4]) came to 86%.

Take `CCOc1ccccc1-n1nc2c(c1-c1ccc(Cl)cc1)C[C@@H](n1ccnc1)C2` [Compound 43, (5R)-3-(4-chlorophenyl)-2-(2-ethoxyphenyl)-5-(1H-imidazol-1-yl)-2,4,5,6-tetrahydrocyclopenta[c]pyrazole]: in experiment [1], the inhibition at 0.33 µM amounted to 87% and the IC50 stood at 42 nM. Moreover, the inhibition at 0.1 µM in experiment [2] (setting [3]) was found to be 5%. The inhibition at 0.1 µM in experiment [2] (setting [4]) was -22%.

As to `CCOc1ccccc1-n1nc2c(c1-c1ccc(Cl)cc1)C[C@@H](NS(=O)(=O)C(C)C)C2` [Compound 44, N-[(5R)-3-(4-chlorophenyl)-2-(2-ethoxyphenyl)-2,4,5,6-tetrahydrocyclopenta[c]pyrazol-5-yl]propane-2-sulfonamide], in experiment [1], the inhibition at 0.33 µM came to 89% and the IC50 is 32 nM. For the same compound, the inhibition at 0.1 µM in experiment [2] (setting [3]) was 48%. Besides, the inhibition at 0.1 µM in experiment [2] (setting [4]) was 42%.
